Our source for the inhibition values is patent publication US20260184663A1, “INDENE COMPOUNDS, PHARMACEUTICAL COMPOSITIONS THEREOF, AND THEIR THERAPEUTIC APPLICATIONS” (NucMito Pharmaceuticals co. Ltd., priority 2022, published 2026).

What all share (assay type): cell-based
For assay [1], the system named is alpha-smooth muscle actin (α-SMA). Put plainly: Inhibition of TGF-β induced expression of alpha-smooth muscle actin (α-SMA) in CFSC cells (western blot). The note with it: compound at 10 μM, TGF-β (10 ng/mL), 24 hours, band intensity vs TGF-β only. The gist of the method:
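Values are percent reduction of α-SMA band intensity relative to cells given TGF-β alone, quantified by Western blot densitometry with β-actin probed. Compound was applied at 10 μM alongside 10 ng/mL TGF-β to serum-free CFSC cultures for 24 h at 37 °C.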
In general terms: A western blot detects proteins with antibodies after separation by electrophoresis.

For assay [2], the system named is MDA-MB-231 (breast cancer). Put plainly: Antiproliferative activity (CCK-8 cell viability), MDA-MB-231. The note with it: Homo sapiens, 72 h, read-out: Antiproliferative activity in cancerous cells, MDA-MB-231 (inhibition of cell growth); for inhibition at 3.3 µM: Compound concentration: 3.3 μM; for inhibition at 10 µM: Compound concentration: 10 μM; for inhibition at 30 µM: Compound concentration: 30 μM. The gist of the method:
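MDA-MB-231 breast cancer cells, grown in DMEM with 10% FBS, were plated in 96-well plates at 2,000-5,000 cells/well. Once attached, they were exposed to compound and incubated at 37° C. for 72 h. Viability was then measured with CCK-8 (10 μL per well, 4 h at 37° C.) by absorbance at 450 nm, relative to DMSO vehicle wells.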

Assay [3] deals with HepG2 (liver cancer). Briefly: Antiproliferative activity (CCK-8 cell viability), HepG2. The note with it: Homo sapiens, 72 h, read-out: Antiproliferative activity in cancerous cells, HepG2 (inhibition of cell growth); for inhibition at 3.3 µM: Compound concentration: 3.3 μM; for inhibition at 10 µM: Compound concentration: 10 μM; for inhibition at 30 µM: Compound concentration: 30 μM. In a few lines: (§1)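 Cells grown in DMEM (HepG2, SW480), MEM (HeLa) or F-12K (A549), each with 10% FBS, then exposed to compound at 3.3, 10 or 30 μM for 72 h at 37 °C. CCK-8 absorbance at 450 nm; viability expressed as percent of DMSO-treated cells, graded as growth inhibition bands.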

For assay [4], the system named is SW480 (colon cancer). Briefly: Antiproliferative activity (CCK-8 cell viability), SW480. As to conditions: Homo sapiens, 72 h, read-out: Antiproliferative activity in cancerous cells, SW480 (inhibition of cell growth); for inhibition at 3.3 µM: Compound concentration: 3.3 μM; for inhibition at 10 µM: Compound concentration: 10 μM; for inhibition at 30 µM: Compound concentration: 30 μM. In a few lines: as §1

Assay [5] has as its system B16F10 (malignant melanoma). Briefly: Antiproliferative activity (CCK-8 cell viability), B16F10. The note with it: Mus musculus, 72 h, read-out: Antiproliferative activity in cancerous cells, B16F10 (inhibition of cell growth); for inhibition at 3.3 µM: B16-F10, Compound concentration: 3.3 μM; for inhibition at 10 µM: B16-F10, Compound concentration: 10 μM; for inhibition at 30 µM: B16-F10, Compound concentration: 30 μM. The gist of the method: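 B16F10 melanoma cells grown in DMEM with 10% FBS were plated in 96-well plates at 2,000-5,000 cells/well. After attachment they were exposed to compound in medium for 72 h at 37° C. CCK-8 solution (10 μL) was then added, and after 4 h at 37° C absorbance was read at 450 nm.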

The subject of assay [6] is A431 (epidermoid carcinoma). Put plainly: Antiproliferative activity (CCK-8 cell viability), A431. As to conditions: Homo sapiens, 72 h, read-out: Antiproliferative activity in cancerous cells, A431 (inhibition of cell growth); for inhibition at 3.3 µM: A-431, Compound concentration: 3.3 μM; for inhibition at 10 µM: A-431, Compound concentration: 10 μM; for inhibition at 30 µM: A-431, Compound concentration: 30 μM. The gist of the method:
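A431 epidermoid carcinoma cells grown in DMEM with 10% FBS were plated at 2,000-5,000 cells/well in 96-well plates. After attachment they were exposed to compound at 3.3 μM, 10 μM, or 30 μM for 72 h at 37° C. Viability was then assessed by CCK-8 against DMSO vehicle-treated wells.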

Assay [7] concerns A549 (lung adenocarcinoma). Briefly: Antiproliferative activity (CCK-8 cell viability), A549. As to conditions: Homo sapiens, 72 h, read-out: Antiproliferative activity in cancerous cells, A549 (inhibition of cell growth); for inhibition at 3.3 µM: Compound concentration: 3.3 μM; for inhibition at 10 µM: Compound concentration: 10 μM; for inhibition at 30 µM: Compound concentration: 30 μM. In a few lines: as §1

Assay [8] deals with HeLa (cervical cancer). Put plainly: Antiproliferative activity (CCK-8 cell viability), HeLa. The note with it: Homo sapiens, 72 h, read-out: Antiproliferative activity in cancerous cells, HELA (inhibition of cell growth); for inhibition at 3.3 µM: Compound concentration: 3.3 μM; for inhibition at 10 µM: Compound concentration: 10 μM; for inhibition at 30 µM: Compound concentration: 30 μM. In a few lines:
as §1

As for `CC1=C(CC(=O)O)c2ccc(F)c(F)c2/C1=C\c1ccc(Oc2ccc(F)cc2)cc1` [C10, (Z)-2-(6,7-Difluoro-1-(4-(4-fluorophenoxy)benzylidene)-2-methyl-1H-inden-3-yl)acetic acid], the inhibition at 10 µM is above 80% in assay [1]; at least 50% in assay [2]; 30 to 50% in assay [3]; at least 50% in assay [4]; at least 50% in assay [5]; at least 50% in assay [6]. Moreover, the results for the inhibition at 10 µM in assay [7] and in assay [8] were 30 to 50% and at least 50%, respectively. The inhibition at 3.3 µM was 30 to 50% in assay [2]; 30 to 50% in assay [3]; below 30% in assay [4]; 30 to 50% in assay [5]; below 30% in assay [6]; below 30% in assay [7]. Also, the inhibition at 3.3 µM in assay [8] is at least 50%.
Turning to `CC1=C(CCC(=O)O)c2ccccc2/C1=C/c1cccc(Oc2ccccc2)c1` [E10, (E)-3-(2-Methyl-1-(3-phenoxybenzylidene)-1H-inden-3-yl)propanoic acid], the inhibition at 10 µM in assay [1], in assay [2], in assay [3], in assay [4], in assay [5] and in assay [6] was below 30% in each case. Further, the inhibition at 10 µM in assay [7] was 30 to 50%; in assay [8] it was below 30%. Also, the inhibition at 3.3 µM in assay [2], in assay [3], in assay [4], in assay [5], in assay [6] and in assay [7] was below 30% each time. In addition, the inhibition at 3.3 µM in assay [8] is below 30%. The inhibition at 30 µM in assay [2] is at least 50%; in assay [3] it was below 30%; in assay [4], 30 to 50%; in assay [5] it was 30 to 50%; in assay [6] it was below 30%; in assay [7] it was at least 50%. In addition, in assay [8], the inhibition at 30 µM was below 30%.
In the case of `CC1=C(CC(=O)O)c2ccc(F)c(F)c2/C1=C\c1cccc(Oc2ccccc2)c1` [C23, (Z)-2-(6,7-Difluoro-2-methyl-1-(3-phenoxybenzylidene)-1H-inden-3-yl)acetic acid], the inhibition at 10 µM in assay [1] was below 30%; in assay [2], at least 50%; in assay [3], below 30%; in assay [4], below 30%; in assay [5], at least 50%; in assay [6], below 30%. The inhibition at 10 µM was below 30% in assay [7] and at least 50% in assay [8]. The inhibition at 3.3 µM was at least 50% in assay [2]; below 30% in assay [3]; below 30% in assay [4]; 30 to 50% in assay [5]; below 30% in assay [6]; below 30% in assay [7]. For the same molecule, the inhibition at 3.3 µM in assay [8] was 30 to 50%.
For `CCCC1=C(CC(=O)O)c2cc(F)ccc2/C1=C\c1cccc(COc2ccccc2)c1` [A7, (Z)-2-(5-Fluoro-1-(3-(phenoxymethyl)benzylidene)-2-propyl-1H-inden-3-yl)-acetic acid], the inhibition at 10 µM in assay [1] is above 80%; in assay [2] it was at least 50%; in assay [3], below 30%; in assay [4], at least 50%; in assay [5], at least 50%; in assay [6] it was at least 50%. The inhibition at 10 µM in assay [7] and in assay [8] was at least 50% in each case. Also, the inhibition at 3.3 µM was at least 50% in assay [2]; at least 50% in assay [3]; below 30% in assay [4]; 30 to 50% in assay [5]; below 30% in assay [6]; 30 to 50% in assay [7]. Further, the inhibition at 3.3 µM in assay [8] is below 30%.
Regarding `CC1=C(CC(=O)O)c2c(F)cc(F)cc2/C1=C\c1ccc(C(C)C)cc1` [D8, (Z)-2-(4,6-Difluoro-1-(4-isopropylbenzylidene)-2-methyl-1H-inden-3-yl)acetic acid], the inhibition at 10 µM in assay [1] is 50 to 80%; in assay [2], at least 50%; in assay [3] it was below 30%; in assay [4] it was below 30%; in assay [5] it was at least 50%; in assay [6] it was below 30%. Also, the figures for the inhibition at 10 µM in assay [7] and in assay [8] were 30 to 50% and at least 50%, respectively. Moreover, the inhibition at 3.3 µM in assay [2] was 30 to 50%; in assay [3], below 30%; in assay [4], below 30%; in assay [5] it was below 30%; in assay [6], below 30%; in assay [7] it was below 30%. Besides, the inhibition at 3.3 µM in assay [8] is at least 50%. Further, the inhibition at 30 µM in assay [2], in assay [3], in assay [4], in assay [5], in assay [6] and in assay [7] was at least 50% in each case. The inhibition at 30 µM in assay [8] was at least 50%.
As for `CC1=C(CC(=O)O)c2ccc(F)cc2/C1=C\c1cccc(COc2ccccc2)c1` [B10, (Z)-2-(6-Fluoro-2-methyl-1-(3-(phenoxymethyl)benzylidene)-1H-inden-3-yl)-acetic acid], the inhibition at 10 µM in assay [1] was above 80%; in assay [2] it was at least 50%; in assay [3] it was at least 50%; in assay [4], below 30%; in assay [5], at least 50%; in assay [6], at least 50%. Also, the inhibition at 10 µM is at least 50% in assay [7] and below 30% in assay [8]. For the same molecule, the inhibition at 3.3 µM is 30 to 50% in assay [2]; 30 to 50% in assay [3]; below 30% in assay [4]; below 30% in assay [5]; below 30% in assay [6]; below 30% in assay [7]. Besides, the inhibition at 3.3 µM in assay [8] was below 30%.

What is called inhibition is the drop in the measured response relative to a control, in per cent.
